According to patent US20230373989A1, “N-PHENYLAMINOCARBONYL PYRIDINO-, PYRIMIDINO AND BENZO-TROPANES AS MODULATORS OF GPR65” (PATHIOS THERAPEUTICS LIMITED, priority 2020, published 2023):
Where two headings read alike, the source gives them in different places.

Biological target: T1, human recombinant GPR65 (Homo sapiens, UniProt Q8IYL9)
T1 construct: host or cells: 1321N1 human astrocytoma cells (1321N1-hrGPR65)
Test: Human GPR65 cAMP HTRF antagonist assay
Assay type: cell-based
Outline: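 1321N1 astrocytoma cells stably expressing GPR65 were preincubated with compound for 30 min at room temperature in KRH pH 7.6 with 1 mM IBMX and 200 μM EDTA. They were then stimulated at assay pH 7.2 for 30 min, with controls at pH 7.9. cAMP was read by HTRF (665/620 nm), normalised to controls and fitted by 4-parameter logistic to give IC50.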

[1] = 1321N1-hrGPR65 cells, assay pH 7.2, cAMP HTRF, read-out: hGPR65 IC50 (activity class)

T1 sequence (Q8IYL9 whole entry): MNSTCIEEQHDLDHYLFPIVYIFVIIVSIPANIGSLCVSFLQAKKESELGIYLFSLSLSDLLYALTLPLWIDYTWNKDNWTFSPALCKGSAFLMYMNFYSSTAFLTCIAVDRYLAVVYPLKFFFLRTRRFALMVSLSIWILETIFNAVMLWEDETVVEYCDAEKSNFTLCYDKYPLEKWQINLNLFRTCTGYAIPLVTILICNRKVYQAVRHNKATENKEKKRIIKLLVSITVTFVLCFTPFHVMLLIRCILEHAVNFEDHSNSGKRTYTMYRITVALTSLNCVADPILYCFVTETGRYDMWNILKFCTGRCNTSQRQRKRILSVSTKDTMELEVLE

In the case of Nc1cc2c(cn1)C1CCC(C2)N1C(=O)Nc1ccc(Cl)c(Cl)c1 (racemic) [Compound 62, (±)-3-amino-N-(3,4-dichlorophenyl)-6,7,8,9-tetrahydro-5H-6,9-epiminocyclohepta[c]pyridine-10-carboxamide], the IC50 [1] is reported as over 5000 nM.

Compound O=C(Nc1ccc(C(F)(F)F)c(Cl)c1)N1C2CCC1c1cc(F)ccc1C2 (racemic) [Compound 81, (±)-N-(3-Chloro-4-(trifluoromethyl)phenyl)-3-fluoro-6,7,8,9-tetrahydro-5H-5,8-epiminobenzo[7]annulene-10-carboxamide] has an IC50 [1] of 500 to 5000 nM.

O=C(Nc1cc(F)cc(F)c1)N1C2CCC1c1ccnc(F)c1C2 (racemic) [Compound 173, (±)-N-(3,5-Difluorophenyl)-1-fluoro-6,7,8,9-tetrahydro-5H-5,8-epiminocyclohepta[c]pyridine-10-carboxamide] showed an IC50 [1] of 500 to 5000 nM.

Work on O=C(Nc1ccc(Cl)c(Cl)c1)N1C2CCC1c1cnc(-c3ccccc3)nc1C2 (racemic) [Compound 26, (±)-N-(3,4-Dichlorophenyl)-2-phenyl-6,7,8,9-tetrahydro-5H-5,8-epiminocyclohepta[d]pyrimidine-10-carboxamide] yielded an IC50 [1] of 500 to 5000 nM.

With O=C(Nc1ccc(Cl)c(Cl)c1)N1C2CCC1c1c[nH]c(=O)cc1C2 (racemic) [Compound 76, (±)-N-(3,4-Dichlorophenyl)-3-oxo-3,5,6,7,8,9-hexahydro-2H-6,9-epiminocyclohepta[c]pyridine-10-carboxamide] the IC50 was under 500 nM.

In the case of N#Cc1ccc(NC(=O)N2C3CCC2c2cncnc2C3)cc1Cl (racemic) [Compound 11, (±)-N-(3-chloro-4-cyanophenyl)-6,7,8,9-tetrahydro-5H-5,8-epiminocyclohepta[d]pyrimidine-10-carboxamide], the IC50 [1] is reported as 500 to 5000 nM.

Work on Cc1cc(NC(=O)N2C3CCC2c2ccnc(F)c2C3)ccc1C(F)(F)F (racemic) [Compound 167, (±)-1-Fluoro-N-(3-methyl-4-(trifluoromethyl)phenyl)-6,7,8,9-tetrahydro-5H-5,8-epiminocyclohepta[c]pyridine-10-carboxamide] yielded an IC50 of under 500 nM.

In the case of COC(=O)c1cc(NC(=O)N2[C@H]3CC[C@@H]2c2ccnc(F)c2C3)ccc1Cl [Compound 123, Methyl 2-chloro-5-((5R,8S)-1-fluoro-6,7,8,9-tetrahydro-5H-5,8-epiminocyclohepta[c]pyridine-10-carboxamido)benzoate], the IC50 is reported as under 500 nM.

O=C(Nc1cc(Br)c(Cl)cc1F)N1[C@H]2CC[C@@H]1c1c[nH]c(=O)cc1C2 [Compound 142, (6S,9R)-N-(5-Bromo-4-chloro-2-fluorophenyl)-3-oxo-3,5,6,7,8,9-hexahydro-2H-6,9-epiminocyclohepta[c]pyridine-10-carboxamide] showed an IC50 of under 500 nM.

O=C(Nc1ccc(Cl)c(Br)c1)N1C2CCC1c1cncnc1C2 (racemic) [Compound 12, (±)-N-(3-Bromo-4-chlorophenyl)-6,7,8,9-tetrahydro-5H-5,8-epiminocyclohepta[d]pyrimidine-10-carboxamide] was tested, and the IC50 [1] was 500 to 5000 nM.

Work on O=C(Nc1ccc(Cl)c(Cl)c1)N1C2CCC1c1cncnc1C2 (racemic) [Compound 48, (±)-N-(3,4-dichlorophenyl)-6,7,8,9-tetrahydro-5H-5,8-epiminocyclohepta[d]pyrimidine-10-carboxamide] yielded an IC50 of under 500 nM.

For O=C(Nc1cc(Cl)c(Cl)cc1F)N1C2CCC1c1cnc(F)c(F)c1C2 (racemic) [Compound 137, (±)-N-(4,5-Dichloro-2-fluorophenyl)-3,4-difluoro-6,7,8,9-tetrahydro-5H-6,9-epiminocyclohepta[c]pyridine-10-carboxamide], the IC50 [1] was 500 to 5000 nM.

Work on O=C(Nc1cccc(Cl)c1Cl)N1C2CCC1c1ccnc(F)c1C2 (racemic) [Compound 161, (±)-N-(2,3-Dichlorophenyl)-1-fluoro-6,7,8,9-tetrahydro-5H-5,8-epiminocyclohepta[c]pyridine-10-carboxamide] yielded an IC50 [1] of 500 to 5000 nM.

O=C(Nc1cccc(C(F)(F)F)c1)N1C2CCC1c1ccnc(F)c1C2 (racemic) [Compound 156, (±)-1-Fluoro-N-(3-(trifluoromethyl)phenyl)-6,7,8,9-tetrahydro-5H-5,8-epiminocyclohepta[c]pyridine-10-carboxamide] was tested, and the IC50 was under 500 nM.

O=C(Nc1ccc(Cl)c(Cl)c1)N1C2CCC1c1ccc(O)cc1C2 (racemic) [Compound 57, (±)-N-(3,4-Dichlorophenyl)-2-hydroxy-6,7,8,9-tetrahydro-5H-5,8-epiminobenzo[7]annulene-10-carboxamide] showed an IC50 [1] of 500 to 5000 nM.

Compound O=C(Nc1ccc(F)c(Cl)c1)N1C2CCC1c1ccnc(F)c1C2 (racemic) [Compound 178, (±)-N-(3-Chloro-4-fluorophenyl)-1-fluoro-6,7,8,9-tetrahydro-5H-5,8-epiminocyclohepta[c]pyridine-10-carboxamide] has an IC50 of under 500 nM.

O=C(Nc1ccc(Cl)c(Cl)c1)N1C2CCC1C(F)c1ncncc12 (racemic) [Compound 113, Cis-(±)-N-(3,4-Dichlorophenyl)-9-fluoro-6,7,8,9-tetrahydro-5H-5,8-epiminocyclohepta[d]pyrimidine-10-carboxamide] was tested, and the IC50 [1] was 500 to 5000 nM.

O=C(Nc1ccc(Cl)c(Cl)c1)N1C2CCC1c1ccccc1C2 (racemic) [Compound 34, (±)-N-(3,4-Dichlorophenyl)-6,7,8,9-tetrahydro-5H-5,8-epiminobenzo[7]annulene-10-carboxamide] was tested, and the IC50 [1] was 500 to 5000 nM.

Work on O=C(Nc1ccc(-c2cnco2)cc1)N1[C@H]2CC[C@@H]1c1ccnc(F)c1C2 [Compound 188, (5R,8S)-1-Fluoro-N-(4-(oxazol-5-yl)phenyl)-6,7,8,9-tetrahydro-5H-5,8-epiminocyclohepta[c]pyridine-10-carboxamide] yielded an IC50 [1] of 500 to 5000 nM.

O=C(Nc1ccc(OC(F)F)c(Cl)c1)N1[C@H]2CC[C@@H]1c1ccnc(F)c1C2 [Compound 133, (5R,8S)—N-(3-Chloro-4-(difluoromethoxy)phenyl)-1-fluoro-6,7,8,9-tetrahydro-5H-5,8-epiminocyclohepta[c]pyridine-10-carboxamide] gave an IC50 of under 500 nM.

N#Cc1cc(NC(=O)N2C3CCC2c2ccnc(F)c2C3)ccc1F (racemic) [Compound 165, (±)-N-(3-Cyano-4-fluorophenyl)-1-fluoro-6,7,8,9-tetrahydro-5H-5,8-epiminocyclohepta[c]pyridine-10-carboxamide] was tested, and the IC50 [1] was 500 to 5000 nM.

O=C(Nc1cc(C(F)(F)F)cc(C(F)(F)F)c1)N1C2CCC1c1ccnc(F)c1C2 (racemic) [Compound 159, (±)-N-(3,5-Bis(trifluoromethyl)phenyl)-1-fluoro-6,7,8,9-tetrahydro-5H-5,8-epiminocyclohepta[c]pyridine-10-carboxamide] gave an IC50 [1] of 500 to 5000 nM.

Work on O=C(Nc1cc(Cl)c(C(F)(F)F)cc1F)N1C2CCC1c1cnncc1C2 (racemic) [Compound 194, (±)-N-(5-Chloro-2-fluoro-4-(trifluoromethyl)phenyl)-6,7,8,9-tetrahydro-5H-5,8-epiminocyclohepta[d]pyridazine-10-carboxamide] yielded an IC50 [1] of 500 to 5000 nM.

O=C(Nc1ccc(Cl)c(Cl)c1)N1C2CCC1c1cnc(F)cc1C2 (racemic) [Compound 67, (±)-N-(3,4-Dichlorophenyl)-3-fluoro-6,7,8,9-tetrahydro-5H-6,9-epiminocyclohepta[c]pyridine-10-carboxamide] showed an IC50 of 500 to 5000 nM.

With O=C(Nc1cc(C(F)(F)F)ccc1F)N1[C@H]2CC[C@@H]1c1ccnc(F)c1C2 [Compound 119, (5R,8S)-1-Fluoro-N-(2-fluoro-5-(trifluoromethyl)phenyl)-6,7,8,9-tetrahydro-5H-5,8-epiminocyclohepta[c]pyridine-10-carboxamide] the IC50 was under 500 nM.
